Type in all cases: biochemical
The target in one assay is T1, CDK4/CyclinD1 (Homo sapiens, UniProt P11802).
T1 construct: purchased Invitrogen
The assay is described as follows: Lance Ultra KinaSelect Assay, CDK4. Conditions: ULight MBP substrate, ATP 90 μM; read-out: CDK4 LANCE assay (activity range), IC50. How it is done:
(§1) This protocol describes how the Lance Ultra KinaSelect Assay was performed to determine half maximal inhibitory concentration (IC50) of compounds of general formula (I) and CDK/Cyclin complexes. The principle behind this enzymatic assay is based upon the phosphorylation of the ULight-Peptide Substrat. It is detected by using a specific EU-labeled anti-phospho peptide antibody. The binding of the Eu-labeled anti-phospho peptide antibody to the phosphorylated ULight labeled peptide gives rise to a FRET-signal. Binding of an inhibitor to the kinase prevents phosphorylation of the ULight-MBP Substrat, resulting in a loss of FRET.
(§2) The compounds of general formula (I) summarized in Table 5 were diluted from a 10 mM DMSO stock solution 1:10 in a total volume of 15 μL DMSO. […] Positive and negative controls were calculated from at least 8 different sample wells. […] Before reading, 10 μL the detection buffer (Lance Detection Buffer 1×; EDTA: […]; Eu-Anti-P-MBP: see Table 3) was added. The FRET signal was measured at 340 nm excitation, 665 nm and 615 nm emission (for the kinase tracer and LanthaScreen Eu-AB, respectively) with an Envision spectrophotometer (Perkin Elmer, Waltham, Mass., USA) with 50 μs delay and 300 μs integration time. IC50 values were determined from the sigmoidal dose response curves with the software Quattro Workflow (Quattro GmbH, Munich, Germany).
(In TR-FRET formats the signal depends on donor and acceptor labels being close together.)

A further assay concerns the target T2, CDK6/CyclinD3 (Homo sapiens, UniProt Q00534).
T2 construct: purchased Carna
The assay is described as follows: Lance Ultra KinaSelect Assay, CDK6. Particulars: ULight MBP substrate, ATP 55 μM; read-out: CDK6 LANCE assay (activity range), IC50. How it is done:
as §1, §2

A further assay deals with T3, CDK1/CyclinB1 (Homo sapiens, UniProt P06493).
T3 construct: purchased Carna
The assay can be described thus: Lance Ultra KinaSelect Assay, CDK1. Conditions: ULight MBP substrate, ATP 20 μM; read-out: CDK1 LANCE assay (activity range), IC50. How it is done:
as §1, §2

Bounds are passed on as bounds.

As a reminder, the IC50 is the concentration that gives 50% inhibition.

T3 sequence (P06493 whole entry): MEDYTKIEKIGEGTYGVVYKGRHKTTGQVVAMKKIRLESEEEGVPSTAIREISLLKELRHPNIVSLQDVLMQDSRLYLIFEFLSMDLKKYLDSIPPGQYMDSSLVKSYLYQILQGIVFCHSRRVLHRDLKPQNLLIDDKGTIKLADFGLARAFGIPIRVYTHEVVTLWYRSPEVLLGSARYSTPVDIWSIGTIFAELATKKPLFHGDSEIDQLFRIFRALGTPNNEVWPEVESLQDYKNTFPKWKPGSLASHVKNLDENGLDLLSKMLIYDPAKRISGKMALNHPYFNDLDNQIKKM
T3 sequence (P14635 whole entry partner): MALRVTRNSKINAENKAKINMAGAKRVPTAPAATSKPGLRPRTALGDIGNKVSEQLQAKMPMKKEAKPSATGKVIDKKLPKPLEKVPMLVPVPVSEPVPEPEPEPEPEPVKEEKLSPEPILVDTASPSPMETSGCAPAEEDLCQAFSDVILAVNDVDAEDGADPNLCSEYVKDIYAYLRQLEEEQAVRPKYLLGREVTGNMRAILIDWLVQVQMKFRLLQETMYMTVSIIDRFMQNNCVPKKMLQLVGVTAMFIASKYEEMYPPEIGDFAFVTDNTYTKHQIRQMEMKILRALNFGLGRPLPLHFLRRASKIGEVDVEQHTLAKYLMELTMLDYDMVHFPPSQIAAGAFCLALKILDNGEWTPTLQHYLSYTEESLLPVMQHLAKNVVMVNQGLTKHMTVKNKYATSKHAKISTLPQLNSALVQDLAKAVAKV
T1 sequence (P11802 whole entry): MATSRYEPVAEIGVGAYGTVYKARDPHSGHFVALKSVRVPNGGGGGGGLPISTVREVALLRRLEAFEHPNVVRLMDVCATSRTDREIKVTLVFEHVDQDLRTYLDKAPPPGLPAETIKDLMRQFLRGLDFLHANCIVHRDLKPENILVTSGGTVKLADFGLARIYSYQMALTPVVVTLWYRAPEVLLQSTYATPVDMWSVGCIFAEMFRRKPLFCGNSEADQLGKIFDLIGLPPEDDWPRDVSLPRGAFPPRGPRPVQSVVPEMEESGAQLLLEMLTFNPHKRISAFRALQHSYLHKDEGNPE
T1 sequence (P24385 whole entry partner): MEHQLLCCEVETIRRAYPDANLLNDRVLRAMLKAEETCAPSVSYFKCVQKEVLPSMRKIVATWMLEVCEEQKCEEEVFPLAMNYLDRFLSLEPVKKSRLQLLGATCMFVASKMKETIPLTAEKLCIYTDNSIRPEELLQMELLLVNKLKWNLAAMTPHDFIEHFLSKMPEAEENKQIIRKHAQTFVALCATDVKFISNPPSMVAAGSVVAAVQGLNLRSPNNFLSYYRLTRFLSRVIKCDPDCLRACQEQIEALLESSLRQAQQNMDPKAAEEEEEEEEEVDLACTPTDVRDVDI
T2 sequence (Q00534 whole entry): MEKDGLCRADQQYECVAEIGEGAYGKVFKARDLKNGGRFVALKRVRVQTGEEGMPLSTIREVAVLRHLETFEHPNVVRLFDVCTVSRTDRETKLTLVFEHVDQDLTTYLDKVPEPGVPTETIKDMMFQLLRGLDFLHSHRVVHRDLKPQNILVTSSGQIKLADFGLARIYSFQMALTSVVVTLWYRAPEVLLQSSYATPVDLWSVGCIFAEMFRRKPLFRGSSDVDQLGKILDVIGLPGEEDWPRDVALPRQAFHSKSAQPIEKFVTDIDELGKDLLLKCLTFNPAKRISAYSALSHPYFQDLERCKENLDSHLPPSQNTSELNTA
T2 sequence (P30281 whole entry partner): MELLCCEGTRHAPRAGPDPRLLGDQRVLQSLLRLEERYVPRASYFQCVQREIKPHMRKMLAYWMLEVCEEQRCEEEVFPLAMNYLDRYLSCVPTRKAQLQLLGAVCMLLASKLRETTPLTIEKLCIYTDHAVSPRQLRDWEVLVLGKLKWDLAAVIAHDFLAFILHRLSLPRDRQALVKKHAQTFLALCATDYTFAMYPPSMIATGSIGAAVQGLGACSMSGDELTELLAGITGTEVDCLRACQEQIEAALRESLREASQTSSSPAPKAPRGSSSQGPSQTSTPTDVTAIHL

As to `COc1ccccc1-c1ccnc(Nc2cccc(S(N)(=O)=O)c2)c1` [Compound D1, 3-[(4-(2-Methoxyphenyl)pyridin-2-yl)amino]benzenesulfonamide], the IC50 was above 10 µM at CDK4/CyclinD1, above 10 µM at CDK6/CyclinD3 and 1 to 10 µM on CDK1/CyclinB1.

For `COc1cc(F)ccc1-c1ccnc(Nc2cccc(CS(N)(=O)=O)c2)c1` [Compound G1, [3-((4-(4-Fluoro-2-methoxyphenyl)pyridin-2-yl)amino)phenyl]-methanesulfonamide], the figures for the IC50 at CDK4/CyclinD1, on CDK6/CyclinD3 and at CDK1/CyclinB1 were 1 to 10 µM, above 10 µM and 1 to 10 µM, respectively.

For the origin of these results see US9242937B2, “Pharmaceutically active disubstituted pyridine derivatives” (Bayer Intellectual Property GmbH, priority 2011, dated 2016).
